Results published in patent publication US20170333591A9, “ABSORBENT ARTICLE COMPRISING MALODOR REDUCTION COMPOSITIONS” (The Procter & Gamble Company, priority 2014, published 2017).

Experiment: Log of liquid dish neat product liquid-air partition coefficient
Type: physicochemical
Conditions: for Log of liquid dish neat product liquid-air partition coefficient (Comment Code K/L): Comment Code letters K and/or L

SMILES	Comment Code: Log of liquid dish neat product liquid-air partition coefficient	Log of liquid dish neat product liquid-air partition coefficient (Comment Code K/L)
CC(=O)C1=C(C)[C@@H]2C[C@@]3(C1)[C@H](C)CC[C@H]3C2(C)C [Material 1129]	K (Log of liquid dish neat product liquid-air partition coefficient greater than or equal to 7)	K (Log of liquid dish neat product liquid-air partition coefficient greater than or equal to 7)
CC(=O)OC(C)CC(C)(C)c1ccccc1 (stereo not drawn) [Material 1134]	K (Log of liquid dish neat product liquid-air partition coefficient greater than or equal to 7)	
C[C@@H]1CC[C@H]2[C@@H]1[C@H]1[C@@H](CC[C@]2(C)O)C1(C)C [Material 1140]	K (Log of liquid dish neat product liquid-air partition coefficient greater than or equal to 7)	K (Log of liquid dish neat product liquid-air partition coefficient greater than or equal to 7)
C[C@H]1[C@@H]2C[C@H](C[C@@]13C=CC(=O)CC3)C2(C)C [Material 1143]	K (Log of liquid dish neat product liquid-air partition coefficient greater than or equal to 7)	K (Log of liquid dish neat product liquid-air partition coefficient greater than or equal to 7)
CC1(C)C2CCC3(C2)C1C1(CCC3(C)C)OCCO1 (stereo not drawn) [Material 1144]	K (Log of liquid dish neat product liquid-air partition coefficient greater than or equal to 7)	K (Log of liquid dish neat product liquid-air partition coefficient greater than or equal to 7)
CC1(C)C2CCC3(C2)C1C1(CCC3(C)C)OCCO1 (stereo not drawn) [Material 1145]	K (Log of liquid dish neat product liquid-air partition coefficient greater than or equal to 7)	K (Log of liquid dish neat product liquid-air partition coefficient greater than or equal to 7)
C=C1CCC2OC2(C)CCC2C1CC2(C)C (stereo not drawn) [Material 1148]	K (Log of liquid dish neat product liquid-air partition coefficient greater than or equal to 7)	K (Log of liquid dish neat product liquid-air partition coefficient greater than or equal to 7)
CC1(C)C2CCC3(C2)C1C(=O)CCC3(C)C (stereo not drawn) [Material 1149]	K (Log of liquid dish neat product liquid-air partition coefficient greater than or equal to 7)	K (Log of liquid dish neat product liquid-air partition coefficient greater than or equal to 7)
